Laboratory results reported in patent US20210353595A1, “USE OF MELATONIN IN PREPARATION OF MEDICAMENT FOR INHIBITING AND/OR KILLING BACTERIUM” (priority 2020, published 2021).
Converted amounts (≈) assume the structure as drawn.

Legend:
Pseudomonas aeruginosa [1] = test: MIC/MBC bacteriostatic and bactericidal test; type: cell-based
Procedure: (§1) 1 mL of a fresh suspension of bacteria (1×10^9 CFU) at the logarithmic growth stage was added into 100 mL containing different concentrations (50 mg/mL, 25 mg/mL, 12.5 mg/mL, 6.25 mg/mL, 3.125 mg/mL, 1.5625 mg/mL, 0.78125 mg/mL, 0.390625 mg/mL) of melatonin. A melatonin (MT)-free solution diluted with DMSO was used as a control group. The samples were shaken at 37° C. and a rotation speed of 120 r/min with protection from light for 12 hours, and then subjected to detection of the minimal inhibitory concentration (MIC) of MT on bacteria. Then, 0.1 mL of the aforementioned transparent bacterial solution was pipetted onto a sterilized agar plate of a specific culture medium and coated evenly, incubated in an incubator at 37° C. for 24 hours, and then subjected to detection of the minimum bactericidal concentration (MBC) of MT on pathogens, wherein the minimum concentration of MT at which no bacterium grew was the MBC of MT on pathogens. Each experiment was carried out for 3 times, and each group was set in triplicate.

[2] = tested on: Staphylococcus aureus (ATCC25923); test: MIC/MBC bacteriostatic and bactericidal test; type: cell-based
Procedure: as §1

Pasteurella multocida [3] = test: Bacteriostatic activity, bacterial growth curve (OD600); type: cell-based; conditions: MT 1, 1.5 and 2 mg/mL (lower than MBC); OD600 every 2 hours; FIG. 1
Procedure: In order to further verify the bacteriostatic activity of melatonin against Pasteurella multocida, the bacterial growth curve was determined in view of an increase of melatonin concentration. […] Then the bacteria were cultured in a shaker at a constant temperature of 37° C. at 220 rpm, and the bacterial culture was determined for OD600 every 2 hours with an ultraviolet spectrophotometer to detect the effect of melatonin on the bacterial growth curve. Each experiment was carried out for three times, and each group was set in triplicate.

[4] = target: T1, citrate synthase in lung epithelial cells (Mus musculus, UniProt Q9CZU6); test: Citrate synthase enzyme activity in lung epithelial cells; type: cell-based; conditions: melatonin up to 40 mg/mL; 1MOI Pasteurella multocida, 12 h; FIG. 26
T1 construct: lysed by ultrasound at a low temperature, and then the enzyme activity of citrate synthase was analyzed; endogenous in cells; host or cells: mouse lung epithelial cells
Procedure: 2×10^5 mouse lung epithelial cells per well were inoculated into a 48-well microplate, and cultured in a 5% CO2 incubator at 37° C. until full confluence of the cells. The non-adherent cells were washed away with 1×PBS, and the cells were treated with melatonin with the final concentrations of 1, 2, 3, 10, 20 and 40 mg/ml, while the control group was treated with the same volume of DMSO. After melatonin treatment for 30 min, 1MOI Pasteurella multocida was added into the culture medium for continue culture. After 12 h, the bacterial cells were collected, lysed by ultrasound at a low temperature, and then the enzyme activity of citrate synthase was analyzed. For specific test steps, please refer to the kit for detecting the enzyme activity of the citrate synthase. Each experiment was repeated three times, and each group was set in hexaplicate.

Klebsiella pneumoniae = test: Growth curve with melatonin and citric acid; type: cell-based; conditions: MT 1-3 mg/mL, FIG. 27
Procedure: (§2) In additional studies, 1 mL of Klebsiella pneumoniae, Pseudomonas aeruginosa, Diplococcus pneumoniae and Streptococcus pneumoniae at the logarithmic growth stage was added into 100 mL of fresh and sterile Martin broth medium containing different concentrations of melatonin and citric acid (CA) (MT-1 mg/mL, MT-1 mg/mL-CA-1 mg/mL, MT-1 mg/mL-CA-2 mg/mL, MT-1 mg/mL-CA-3 mg/mL; MT-2 mg/mL, MT-2 mg/mL-CA-1 mg/mL, MT-2 mg/mL-CA-2 mg/mL, MT-2 mg/mL-CA-3 mg/mL; MT-3 mg/mL, MT-3 mg/mL-CA-1 mg/mL, MT-3 mg/mL-CA-2 mg/mL MT-3 mg/mL-CA-3 mg/mL).

Pseudomonas aeruginosa [5] = test: Growth curve with melatonin and citric acid; type: cell-based; conditions: MT 1-3 mg/mL, FIG. 27
Procedure: as §2

Streptococcus = test: Growth curve with melatonin and citric acid; type: cell-based, Streptococcus pneumoniae; conditions: MT 1-3 mg/mL, FIG. 27
Procedure: as §2

Pneumococcus = test: Growth curve with melatonin and citric acid; type: cell-based, Diplococcus pneumoniae; conditions: MT 1-3 mg/mL, FIG. 27
Procedure: as §2

Pasteurella multocida [6] = test: Prevention and treatment of Pasteurella multocida infection in mice; type: in vivo, C57BL/6 mice
Procedure: (§3) C57 mice purchased from the Third Military Medical University were randomly divided into four groups (10 mice in each group): a group of Pasteurella multocida+solvent control, a group of Pasteurella multocida+MT (30 mg/kg), a group of Pasteurella multocida+MT (60 mg/kg), and a group of Pasteurella multocida+MT (120 mg/kg). Before Pasteurella multocida infection, MT was injected intraperitoneally to the experimental group (injection once in the morning) for consecutive 7 days (P) or 6 days (P-1), while the control mice received the equal amount of DMSO. Thereafter, mice were infected by intraperitoneal injection of suspension of Pasteurella multocida ([…]). The survival rate of mice within 7 days was monitored and recorded. Blood samples were collected from mice, and the serum was stored at −20° C. for later ELISA test. Lung samples were collected and homogenized aseptically, and then the bacterial load was quantified by serial dilution, plate inoculation and CFU counting.
(§4) Mice were randomly divided into four groups (10 mice in each group) as described in #1, described above. In the experimental group, after infection with 2.2×10^5 CFU of Pasteurella multocida through intraperitoneal injection, MT was injected intraperitoneally for four times, with the first injection 30 minutes after Pasteurella multocida infection, then the injection was performed once every 6 hours, for three times in total. Control mice were given an equal amount of DMSO at the same four time points. Subsequently, the survival rate of mice within 7 days was recorded. At the same time, mice were euthanized at 12 h, 16 h, 24 h and 32 h after infection to collect tissue and serum samples for later ELISA and bacterial count analysis.
In order to measure the colonization of mouse lung bacteria before and after melatonin treatment, the lung tissues of mice were collected 24 hours and 32 hours after infection. The tissues were homogenized under aseptic conditions, and the bacterial content was determined by continuous dilution of 10 times in saline. […]

Pasteurella multocida [7] = test: Prevention of Pasteurella multocida infection by melatonin in mice; type: in vivo, C57BL/6 mice
Procedure: as §3
(§5) In order to measure the colonization of mouse lung bacteria before and after melatonin treatment, the lung tissues of mice were collected 24 hours and 32 hours after infection. The tissues were homogenized under aseptic conditions, and the bacterial content was determined by continuous dilution of 10 times in saline. These different dilutions were coated on the Martin broth agar in triplicate and incubated in a constant-temperature incubator at 37° C. for 24 hours to count the bacterial CFU.

Pasteurella multocida [8] = test: Treatment of Pasteurella multocida infection by melatonin in mice; type: in vivo, C57BL/6 mice; conditions: intraperitoneal at 30 minutes, 6, 12 and 18 hours after infection
Procedure: as §4, §5

[9] = preventive dose 60 mg/kg or above, intraperitoneal, consecutive 7 days before infection

T1 sequence (Q9CZU6 28-464): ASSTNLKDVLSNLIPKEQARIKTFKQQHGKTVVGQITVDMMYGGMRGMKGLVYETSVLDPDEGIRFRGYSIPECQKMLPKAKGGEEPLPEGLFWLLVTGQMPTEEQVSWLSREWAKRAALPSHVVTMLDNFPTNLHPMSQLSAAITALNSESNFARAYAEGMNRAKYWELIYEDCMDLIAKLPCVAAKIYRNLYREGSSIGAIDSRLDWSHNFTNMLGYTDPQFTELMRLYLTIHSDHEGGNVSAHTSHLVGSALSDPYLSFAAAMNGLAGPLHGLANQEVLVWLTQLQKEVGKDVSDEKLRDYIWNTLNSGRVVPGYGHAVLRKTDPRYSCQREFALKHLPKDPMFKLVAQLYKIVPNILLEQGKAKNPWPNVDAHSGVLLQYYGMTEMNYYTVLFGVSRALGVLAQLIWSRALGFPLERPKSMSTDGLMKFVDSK

COc1ccc2[nH]cc(CCNC(C)=O)c2c1 [melatonin, N-acetyl-5-methoxytryptamine]
MIC (Pseudomonas aeruginosa [1]; 37° C., 12 hours): 12.5 mg/mL (≈ 53.8 mM)
MBC (Pseudomonas aeruginosa [1]; agar plate 37° C., 24 hours): 12.5 mg/mL (≈ 53.8 mM)
MIC ([2]; 37° C., 12 hours): 50 mg/mL (≈ 215 mM)
MBC ([2]; agar plate 37° C., 24 hours): 50 mg/mL (≈ 215 mM)
bacterial growth (growth curve, OD600) (Pasteurella multocida [3]): significantly inhibits bacterial growth
enzyme activity of citrate synthase in lung epithelial cells [4]: did not affect
antibacterial activity (Klebsiella pneumoniae): exhibits antibacterial activity
antibacterial activity (Pseudomonas aeruginosa [5]): exhibits antibacterial activity
antibacterial activity (Streptococcus): exhibits antibacterial activity
antibacterial activity (Pneumococcus): exhibits antibacterial activity
bacterial colonization in the lung tissues of mice (Pasteurella multocida [6]; 24 hours and 32 hours after infection, prevention and treatment groups vs DMSO group): significantly reduced
decrease of bacterial colonization amount (CFU/g) (Pasteurella multocida [6]; dose of 120 mg/kg, lung tissues): about 2 log 10
survival rates of mice (Pasteurella multocida [6]; prevention and treatment groups vs DMSO group, intraperitoneal, FIGS. 29-34): significantly improved
preventive effect on the bacterial infection (Pasteurella multocida [7]; melatonin removed 24 hours before infection (P-1, 6 days), FIGS. 33 and 34): significant preventive effect
bacterial count in the lung (Pasteurella multocida [7]; [9]): significantly reduced
survival rate of mice (Pasteurella multocida [7]; [9]): significantly improved
survival rate (Pasteurella multocida [8]; FIG. 35): improving the survival rate
bacterial colonization in mouse lungs (Pasteurella multocida [8]; FIG. 36): reducing bacterial colonization
